Here are results for ten compounds from patent US20060247233A1, “Thiazoles inhibitors of the alk-5 receptor” (priority 2003, published 2006).

Data set [1] deals with T1, recombinant GST-ALK5 (residues 198-503) (Homo sapiens, UniProt P36897).
T1 construct: assays using recombinant GST-ALK5 (residues 198-503); GST (N)
T1 sequence (P36897 198-503): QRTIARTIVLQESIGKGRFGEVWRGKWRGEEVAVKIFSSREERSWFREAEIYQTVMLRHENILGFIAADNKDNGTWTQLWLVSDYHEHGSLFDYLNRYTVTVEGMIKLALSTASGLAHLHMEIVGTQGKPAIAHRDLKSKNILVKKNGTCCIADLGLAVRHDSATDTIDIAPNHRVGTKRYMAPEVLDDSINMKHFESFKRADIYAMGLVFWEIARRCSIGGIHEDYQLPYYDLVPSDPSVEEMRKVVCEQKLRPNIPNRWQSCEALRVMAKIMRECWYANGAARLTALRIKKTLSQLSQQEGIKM
As to the kind of experiment: Assay 2 (Alk5 Fluorescence Polarization Assay). Particulars: rhodamine green-labelled ligand 1 nM, ALK5 10 nM, read-out: ALK5 receptor modulator activity (IC50). It counts as binding. The method, then: Assay 2 (Alk5 Fluorescence Polarization Assay)
Kinase inhibitor compounds conjugated to fluorophores, can be used as fluorescent ligands to monitor ATP competitive binding of other compounds to a given kinase. The increase in depolarization of plane polarized light, caused by release of the bound ligand into solution, is measured as a polarization/anisotropy value. This protocol details the use of a rhodamine green-labelled ligand for assays using recombinant GST-ALK5 (residues 198-503).
Assay buffer components: 62.5 mM Hepes pH 7.5 (Sigma H-4034), 1 mM DTT (Sigma D-0632), 12.5 mM MgCl2 (Sigma M-9272), 1.25 mM CHAPS (Sigma C-3023). […]
ALK5 was added to assay buffer containing the above components and 1 nM of the rhodamine green-labelled ligand so that the final ALK5 concentration was 10 nM based on active site titration of the enzyme. […] The plates were read immediately on a UL Acquest fluorescence reader (Molecular Devices, serial number AQ1048) with excitation, emission, and dichroic filters of 485 nm, 530 nm, and 505 nm, respectively. The fluorescence polarization for each well was calculated by the Acquest reader and then imported into curve fitting software for construction of concentration response curves. The normalized response was determined relative to the high controls (1 μl DMSO in column 12, rows […]) and the low controls (1 μl of control compound in column 12, rows E-H). […]
A general note: In fluorescence polarisation assays a small probe gives low polarisation when free and higher when bound to something large.

In data set [2] the test system is HepG2 cells stably transfected with the PAI-1 promoter linked to a luciferase (firefly) reporter gene, exposed to TGF-β. As to the kind of experiment: Assay 1 (Cellular Transcriptional Assay): TGF-β induced PAI-1 promoter luciferase reporter. The following applies: for IC50: Homo sapiens, HepG2, read-out: TGF-β cellular activity (IC50). A general note: Reporter assays use an easily measured gene product as a stand-in for the process of interest.
Procedure: The assay was performed in HepG2 cells stably transfected with the PAI-1 promoter (known to be a strong TGF-β responsive promoter) linked to a luciferase (firefly) reporter gene. The compounds were selected on their ability to inhibit luciferase activity in cells exposed to TGF-β. In addition, cells were transfected with a second luciferase (Renilla) gene which was not driven by a TGF-β responsive promoter and was used as a toxicity control.
96 well microplates were seeded, using a multidrop apparatus, with the stably transfected cell line at a concentration of 35000 cells per well in 200 μl of serum-containing medium. These plates were placed, in a cell incubator.
18 to 24 hours later (Day 2), cell-incubation procedure was launched: Cells were incubated with TGF-β and a candidate compound at concentrations in the range 50 nM to 10 μM (final concentration of DMSO 1%). The final concentration of TGF-β (rhTGFβ-1) used in the test was 1 ng/mL. […] The final volume of the test reaction was 150 μl. Each well contained only one candidate compound and its effect on the PAI-1 promoter was monitored.
Columns 11 and 12 were employed as controls. Column 11 contained 8 wells in which the cells were incubated in the presence of TGF-β, without a candidate compound. Column 11 was used to determine the ‘reference TGF-β induced firefly luciferase value’ against which values measured in the test wells (to quantify inhibitory activity) were compared. In wells A12 to D12, cells were grown in medium without TGF-β. […]
12 to 18 hours later (day 3), the luciferase quantification procedure was launched. […] Following agitation (15 to 30 mins), luciferase activities of the plates were read in a dual-injector luminometer (BMG lumistar). For this purpose, 50 μl of luciferase assay reagent and 50 μl of ‘Stop & Glo’ buffer were injected sequentially to quantify the activities of both luciferases. […] For each of the compounds tested, a concentration response curve was constructed from which an IC50 value was determined graphically.

A word on the melting point: it is the temperature of the solid-liquid transition. Usually IC50 stands for the midpoint of a concentration-inhibition curve.

`Nc1nc(-c2ccc3ncccc3c2)c(-c2ccccn2)s1` [Example 9, 4-(Quinolin-6-yl)-5-(pyridin-2-yl)-1,3-thiazol-2-amine] gave a melting point of 226 °C. On the same count and under the same terms, as for `Cc1cccc(-c2sc(N)nc2-c2ccc3ncoc3c2)n1` [Example 2, 4-(benzoxazol-6-yl)-5-(6-methyl-pyridin-2-yl)-1,3-thiazol-2-amine], the figure is 188 to 190 °C; as for `Cc1cccc(-c2nc(N)sc2-c2ccc3c(c2)N(C)C(=O)CO3)n1` [Example 5, 5-[4-methyl-4H-benzo[1,4]oxazin-3-one-6-yl]-4-(6-methylpyridin-2-yl)-1,3-thiazol-2-amine], 240 to 242 °C. `CCn1cnc2ccc(-c3sc(N)nc3-c3cccc(C)n3)cc21` [Example 3, 5-(1-ethyl-benzimidazol-6-yl)-4-(6-methylpyridin-2-yl)-1,3-thiazol-2-amine] had a melting point of 218 to 220 °C. As for `Cc1cccc(-c2nc(N)sc2-c2ccc3ncn(C)c3c2)n1` [Example 1, 5-(1-methyl-benzimidazol-6-yl)-4-(6-methylpyridin-2-yl)-1,3-thiazol-2-amine], the melting point was in the range of 244 to 246 °C. Moreover, in data set [1], the IC50 is 16 nM. In data set [2], the IC50 was found to be 11 nM. `Cc1cccc(-c2sc(N)nc2-c2ccc3c(c2)OCO3)n1` [Example 7, 4-(Benzo[1,3]dioxol-5-yl)-5-(6-methylpyridin-2-yl)-1,3-thiazol-2-amine] registered a melting point of 170 to 172 °C. On the same count and under the same terms, as for `Nc1nc(-c2ccc3c(c2)OCCO3)c(-c2ccccn2)s1` [Example 8, 4-(Benzodioxan-6-yl)-5-(Pyridin-2-yl)-1,3-thiazol-2-amine], the figure is 214 °C; as for `COCCn1cnc2ccc(-c3sc(N)nc3-c3cccc(C)n3)cc21` [Example 4, 5-(1-(2-methoxyethyl)-benzimidazol-6-yl)-4-(6-methylpyridin-2-yl)-1,3-thiazol-2-amine], 200 to 202 °C. With `O=C1C=CCC1` [CPO, Cyclopentenone, reference compound], in data set [2] (500 μM, in the presence of TGF-β, toxicity control), the “firefly and renilla luciferase activities, relative to TGF-β only wells” value is recorded as “around 50%”. In turn, `CCN1C(=O)COc2ccc(-c3sc(N)nc3-c3cccc(C)n3)cc21` [Example 6, 5-[4-ethyl-4H-benzo[1,4]oxazin-3-one-6-yl]-4-(6-methylpyridin-2-yl)-1,3-thiazol-2-amine] gave a melting point of 228 to 230 °C. For the same compound, the IC50 in data set [1] was found to be 27 nM. Also, in data set [2], the IC50 was found to be 104 nM.
